What is called IC50 is the concentration needed to halve the response being measured. A low value points to inhibition by little substance.

This note sets out measurements from patent US12187723B2 (BRISTOL-MYERS SQUIBB COMPANY, priority 2019, dated 2025).

The target in one assay is T1, human TLR8 (Homo sapiens, UniProt Q9NR97).
T1 construct: host or cells: HEK-Blue cells
T1 sequence (Q9NR97 27-1041): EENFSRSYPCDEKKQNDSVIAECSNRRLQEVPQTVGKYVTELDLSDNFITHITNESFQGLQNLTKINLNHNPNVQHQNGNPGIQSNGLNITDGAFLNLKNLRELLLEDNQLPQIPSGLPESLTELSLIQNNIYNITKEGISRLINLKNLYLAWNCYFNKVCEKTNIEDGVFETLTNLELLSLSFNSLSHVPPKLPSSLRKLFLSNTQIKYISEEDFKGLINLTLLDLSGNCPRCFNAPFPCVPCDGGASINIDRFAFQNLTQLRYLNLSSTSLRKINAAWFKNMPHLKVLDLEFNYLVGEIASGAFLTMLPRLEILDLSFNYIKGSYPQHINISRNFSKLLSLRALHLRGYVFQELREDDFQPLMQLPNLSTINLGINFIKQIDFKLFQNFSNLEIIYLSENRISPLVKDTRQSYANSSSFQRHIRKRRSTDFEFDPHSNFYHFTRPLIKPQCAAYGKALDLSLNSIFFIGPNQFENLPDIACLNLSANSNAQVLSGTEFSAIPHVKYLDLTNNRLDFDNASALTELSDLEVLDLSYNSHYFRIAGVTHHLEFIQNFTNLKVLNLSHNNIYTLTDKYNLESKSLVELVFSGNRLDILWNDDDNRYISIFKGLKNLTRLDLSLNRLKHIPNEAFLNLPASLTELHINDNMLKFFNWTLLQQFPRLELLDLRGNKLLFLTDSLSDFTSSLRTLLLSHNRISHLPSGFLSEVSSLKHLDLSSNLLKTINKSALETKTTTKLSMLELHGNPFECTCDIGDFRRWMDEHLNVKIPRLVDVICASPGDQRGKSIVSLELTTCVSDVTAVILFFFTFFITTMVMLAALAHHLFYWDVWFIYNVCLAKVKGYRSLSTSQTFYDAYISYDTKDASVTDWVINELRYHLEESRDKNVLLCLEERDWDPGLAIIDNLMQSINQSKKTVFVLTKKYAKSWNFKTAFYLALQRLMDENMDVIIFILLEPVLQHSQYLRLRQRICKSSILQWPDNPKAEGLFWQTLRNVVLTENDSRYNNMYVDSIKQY
The experiment in a line: TLR8 inhibition reporter assay (HEK-Blue SEAP). It counts as cell-based. To be noted: HEK-Blue cells overexpressing human TLR8, R848 15.9 μM, 22 hour incubation. The method, boiled down:
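Human TLR7/8/9 HEK-Blue reporter lines; dose range 0.05 nM–50 μM; 30 min RT preincubation; stimulus gardiquimod 7.5 μM / R848 15.9 μM / ODN2006 5 nM respectively; 22 h, 37 °C; SEAP detected colorimetrically.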
A general note: In a reporter assay the amount or activity of a reporter protein is the signal.

Another assay addresses T2, human TLR7 (Homo sapiens, UniProt Q9NYK1).
T2 construct: host or cells: HEK-Blue cells
T2 sequence (Q9NYK1 27-1049): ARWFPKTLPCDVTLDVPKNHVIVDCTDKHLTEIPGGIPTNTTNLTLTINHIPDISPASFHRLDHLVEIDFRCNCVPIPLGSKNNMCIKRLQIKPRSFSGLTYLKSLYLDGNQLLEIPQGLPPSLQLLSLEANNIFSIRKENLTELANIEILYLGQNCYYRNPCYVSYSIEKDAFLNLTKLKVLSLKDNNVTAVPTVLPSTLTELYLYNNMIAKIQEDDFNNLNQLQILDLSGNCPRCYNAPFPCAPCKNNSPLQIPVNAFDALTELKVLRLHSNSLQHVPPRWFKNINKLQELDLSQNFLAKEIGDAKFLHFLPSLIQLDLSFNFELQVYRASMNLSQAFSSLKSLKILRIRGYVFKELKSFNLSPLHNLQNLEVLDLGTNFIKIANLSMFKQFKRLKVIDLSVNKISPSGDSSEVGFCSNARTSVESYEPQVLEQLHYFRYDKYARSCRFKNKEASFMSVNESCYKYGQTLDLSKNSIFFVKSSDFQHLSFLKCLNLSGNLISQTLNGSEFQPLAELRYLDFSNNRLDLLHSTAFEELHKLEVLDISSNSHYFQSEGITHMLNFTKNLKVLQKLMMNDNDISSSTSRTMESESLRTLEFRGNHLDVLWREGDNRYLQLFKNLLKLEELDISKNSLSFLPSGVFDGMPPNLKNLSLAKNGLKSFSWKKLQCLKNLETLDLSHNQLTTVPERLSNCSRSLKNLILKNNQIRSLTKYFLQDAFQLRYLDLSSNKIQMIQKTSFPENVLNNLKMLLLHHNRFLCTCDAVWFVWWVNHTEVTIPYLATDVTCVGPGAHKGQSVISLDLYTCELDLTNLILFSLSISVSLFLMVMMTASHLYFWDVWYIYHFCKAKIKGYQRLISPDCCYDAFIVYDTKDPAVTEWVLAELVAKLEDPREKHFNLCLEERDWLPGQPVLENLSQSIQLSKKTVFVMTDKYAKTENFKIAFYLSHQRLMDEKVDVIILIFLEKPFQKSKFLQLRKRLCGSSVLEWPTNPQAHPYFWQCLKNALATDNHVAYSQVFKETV
The experiment in a line: TLR7 inhibition reporter assay (HEK-Blue SEAP). To be noted: HEK-Blue cells overexpressing human TLR7, gardiquimod 7.5 μM, 22 hour incubation. It counts as cell-based. The procedure, abridged: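 Cells (15000/well for TLR7, 20,000 for TLR8) were treated with compounds over 0.05 nM-50 μM final. After 22 h at 37° C, 5% CO2, SEAP was measured with HEK-Blue Detection reagent; percent inhibition was taken as reduction of agonist-plus-DMSO signal relative to a known inhibitor.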

On to `Cc1cc2c(cc1-c1cc(C)c3ncnn3c1)[nH]c(=O)n2[C@@H]1CCCN(CC(C)(C)C)C1` [Example 26, (R)-6-methyl-5-(8-methyl-[1,2,4]triazolo[1,5-a]pyridin-6-yl)-1-(1-neopentylpiperidin-3-yl)-1,3-dihydro-2H-benzo[d]imidazol-2-one], for which the results for the IC50 on human TLR8 and against human TLR7 were 384 nM and 235 nM, respectively.
Taken in the same sequence, the figures for `Cc1cc2c(cc1-c1cc(C)c3ncnn3c1)[nH]c(=O)n2[C@@H]1CCCN(CCC(F)(F)F)C1` [Example 29, (R)-6-methyl-5-(8-methyl-[1,2,4]triazolo[1,5-a]pyridin-6-yl)-1-(1-(3,3,3-trifluoropropyl)piperidin-3-yl)-1,3-dihydro-2H-benzo[d]imidazol-2-one] were 49.5 nM and 211 nM.
Taken in the same sequence, the figures for `Cc1c(-c2cc3[nH]c(=O)n(C4CCC(N5CC6(COC6)C5)CC4)c3cc2C(C)C)cn2ncnc2c1C` (single isomer, unassigned) [Example 298] were 3.76 nM and 16.5 nM.
Taken in the same sequence, the figures for `COc1c(C)c(-c2cc3[nH]c(=O)n(C4CCC(NCC5(S(C)(=O)=O)CC5)CC4)c3cc2C(C)C)cn2ncnc12` (single isomer, unassigned) [Example 259] were 1.85 nM and 10.4 nM.
On to `CCc1cc2c(cc1-c1cc(OC)c3ncnn3c1)[nH]c(=O)n2[C@@H]1CCCNC1` [119 FB, (R)-6-ethyl-5-(8-methoxy-[1,2,4]triazolo[1,5-a]pyridin-6-yl)-1-(piperidin-3-yl)-1,3-dihydro-2H-benzo[d]imidazol-2-one], for which the values for the concentration for half-maximal inhibition (IC50) on human TLR8 and at human TLR7 were 6.99 nM and 5.47 nM, respectively.
The corresponding values for `Cc1cc2c(cc1-c1cc(C)c3ncnn3c1)[nH]c(=O)n2[C@H]1CC[C@H](N)CC1` [1 EF, 1-((1r,4r)-4-aminocyclohexyl)-6-methyl-5-(8-methyl-[1,2,4]triazolo[1,5-a]pyridin-6-yl)-1,3-dihydro-2H-benzo[d]imidazol-2-one] are 33.2 nM and 40.7 nM.
On to `CCN[C@H]1CC[C@H](n2c(=O)[nH]c3cc(-c4cc(C)c5ncnn5c4)c(C)cc32)CC1` [Example 24, 1-((1r,4s)-4-(ethylamino)cyclohexyl)-6-methyl-5-(8-methyl-[1,2,4]triazolo[1,5-a]pyridin-6-yl)-1,3-dihydro-2H-benzo[d]imidazol-2-one], for which the results for the IC50 on human TLR8 and on human TLR7 were 6.74 nM and 12.4 nM, respectively.
Taken in the same sequence, the figures for `COC[C@@H]1CCN(C2CCC(n3c(=O)[nH]c4cc(-c5cc(OC)c6ncnn6c5)c(C(C)C)cc43)CC2)C1` (single isomer, unassigned) [Example 290] were 0.53 nM and 1.38 nM.
Consider `COc1c(C)c(-c2cc3[nH]c(=O)n(C4CCC(N5CCC6(CC5)COC6)CC4)c3cc2C(C)C)cn2ncnc12` (single isomer, unassigned) [Example 268, 1-(4-(2-oxa-7-azaspiro[3.5]nonan-7-yl)cyclohexyl)-6-isopropyl-5-(8-methoxy-7-methyl-[1,2,4]triazolo[1,5-a]pyridin-6-yl)-1,3-dihydro-2H-benzo[d]imidazol-2-one], for which the IC50 at human TLR8 was 1.08 nM; against human TLR7, 15.8 nM.
Taken in the same sequence, the figures for `Cc1c(-c2cc3[nH]c(=O)n(C4CCC(N5CC(F)C5)CC4)c3cc2C(C)C)cn2ncnc2c1C` (stereo not shown) [Example 279, 5-(7,8-dimethyl-[1,2,4]triazolo[1,5-a]pyridin-6-yl)-1-(4-(3-fluoroazetidin-1-yl)cyclohexyl)-6-isopropyl-1,3-dihydro-2H-benzo[d]imidazol-2-one] were 1.52 nM and 2.89 nM.
In the case of `COc1cc(-c2cc3[nH]c(=O)n(C4CCC(N5CCC(S(C)(=O)=O)C5)CC4)c3cc2C(C)C)cn2ncnc12` (single isomer, unassigned) [Example 288, 6-isopropyl-5-(8-methoxy-[1,2,4]triazolo[1,5-a]pyridin-6-yl)-1-(4-(3-(methylsulfonyl)pyrrolidin-1-yl)cyclohexyl)-1,3-dihydro-2H-benzo[d]imidazol-2-one], the results for the IC50 against human TLR8 and against human TLR7 were 0.75 nM and 5.09 nM, respectively.
Taken in the same sequence, the figures for `COc1cc(-c2cc3[nH]c(=O)n(C4CCC(N5C6CCC5COC6)CC4)c3cc2C(C)C)cn2ncnc12` (single isomer, unassigned) [Example 252, 1-(4-(3-oxa-8-azabicyclo[3.2.1]octan-8-yl)cyclohexyl)-6-isopropyl-5-(8-methoxy-[1,2,4]triazolo[1,5-a]pyridin-6-yl)-1,3-dihydro-2H-benzo[d]imidazol-2-one] were 24.8 nM and 40.5 nM.
Taken in the same sequence, the figures for `COc1cc(-c2cc3[nH]c(=O)n(C4CCC(N5CCSCC5)CC4)c3cc2C(C)C)cn2ncnc12` (stereo not shown) [Example 250, 6-isopropyl-5-(8-methoxy-[1,2,4]triazolo[1,5-a]pyridin-6-yl)-1-(4-thiomorpholinocyclohexyl)-1,3-dihydro-2H-benzo[d]imidazol-2-one] were 0.36 nM and 1.99 nM.
Turning to `Cc1cc2c(cc1-c1cc(C)c3ncnn3c1)[nH]c(=O)n2[C@H]1CC[C@@H](N(C)C)CC1` [Example 19, 1-((1s,4s)-4-(dimethylamino)cyclohexyl)-6-methyl-5-(8-methyl-[1,2,4]triazolo[1,5-a]pyridin-6-yl)-1,3-dihydro-2H-benzo[d]imidazol-2-one], the results for the IC50 on human TLR8 and against human TLR7 were 32 nM and 21.3 nM, respectively.
Take `Cc1c(-c2cc3[nH]c(=O)n(C4CCC(N5CC(F)C5)CC4)c3cc2C(C)C)cn2ncnc2c1C` (stereo not shown) [Example 280, 5-(7,8-dimethyl-[1,2,4]triazolo[1,5-a]pyridin-6-yl)-1-(4-(3-fluoroazetidin-1-yl)cyclohexyl)-6-isopropyl-1,3-dihydro-2H-benzo[d]imidazol-2-one]: the IC50 against human TLR8 is 2.75 nM; against human TLR7 it was 4.91 nM.
As to `Cc1c(-c2cc3[nH]c(=O)n([C@@H]4CCCNC4)c3cc2C(C)C)cn2ncnc2c1C` [119 FC, (R)-5-(7,8-dimethyl-[1,2,4]triazolo[1,5-a]pyridin-6-yl)-6-isopropyl-1-(piperidin-3-yl)-1,3-dihydro-2H-benzo[d]imidazol-2-one], the IC50 against human TLR8 is 7.17 nM; at human TLR7, 3.26 nM.
Taken in the same sequence, the figures for `Cc1cc2c(cc1-c1cc(C)c3ncnn3c1)[nH]c(=O)n2[C@H]1CC[C@@H](NC(C)C)CC1` [Example 22, 1-((1s,4s)-4-(isopropylamino)cyclohexyl)-6-methyl-5-(8-methyl-[1,2,4]triazolo[1,5-a]pyridin-6-yl)-1,3-dihydro-2H-benzo[d]imidazol-2-one] were 4.08 nM and 4.77 nM.
